Experimental data reported in publication PMC9513972, “Carboxypeptidase G and pterin deaminase metabolic pathways degrade folic acid in Variovorax sp. F1” (BMC Microbiology, 2022).

Tested on: T1, recombinant PDA (rPDA) from Variovorax sp. F1
T1 construct: full-length gene product, 399 residues; 45 kDa band; pET28a NdeI/XhoI (N-terminal His tag), E. coli BL21 (DE3), HisTrap
Test: HPLC initial velocity, Michaelis-Menten fit
Assay type: biochemical
Settings: 50 mM Tris-HCl pH 7.5, 30 °C
Excerpt: HPLC initial velocity, Michaelis-Menten fit on recombinant PDA (rPDA) from Variovorax sp.

Nc1nc2ncc(CNc3ccc(C(=O)O)cc3)nc2c(=O)[nH]1 [pteroic acid]
Km (deamination to deaminopteroic acid): 1500 ± 600 µM

Nc1nc2ncc(CNc3ccc(C(=O)N[C@@H](CCC(=O)O)C(=O)O)cc3)nc2c(=O)[nH]1 [folic acid]
Km (deamination to deaminofolic acid): 280 ± 60 µM
